Paper PMC9037180, “Ligand-based design and synthesis of N'-Benzylidene-3,4-dimethoxybenzohydrazide derivatives as potential antimicrobial agents; evaluation by in vitro, in vivo, and in silico approaches with SAR studies” (Journal of Enzyme Inhibition and Medicinal Chemistry, 2022)
Converted amounts (≈) assume the structure as drawn. Where two headings read alike, the source gives them in different places.

Assays:
C. albicans MTCC183 = experiment: Minimal inhibitory concentration (MIC), broth dilution; format: cell-based
Source text: In vitro evaluation for antifungal activities regarding target compounds (4a–j) as well as reference drug, was done against C. albicans MTCC183 through the zone inhibition technique using well diffusion agar assay in addition to MIC.

[1] = test system: E. faecalis, Acientobacter, P. auriginosa, S. aureus, S. typhi, E. coli, C. albicans; experiment: Average MIC over the nine tested microbial species (SAR); format: cell-based; details: for antimicrobial activity (SAR grading): based on MIC average values
Source text: Herein, we aimed to study the structure-antimicrobial activity relationship of the newly synthesised N'-benzylidene-3,4-dimethoxybenzohydrazide derivatives based on MIC average values[51]^,[52] as represented in the supplementary data (Table SI1). Thereby, the changes in their antimicrobial potential and spectrum upon structural modifications could be unveiled, thus offering clues for structural changes that are capable of increasing the antimicrobial potential.

E. coli = experiment: Minimal bactericidal concentration (MBC); format: cell-based
Protocol: (§1) After determining the MIC for the target compounds, the minimal bactericidal concentration (MBC) for each compound that is required to kill each one of the above-mentioned microorganisms was assessed.

S. aureus = experiment: Minimal bactericidal concentration (MBC); format: cell-based
Protocol: as §1

S. typhi [2] = experiment: Biochemical analysis in S. typhi infected rats; format: in vivo
Protocol: The compounds 4h and 4j were dissolved in DMSO (dimethyl sulfoxide) then further dilutions were made by using sterile distilled water. The doses of both candidates were calculated according to the method given by Paget and Barnes[60]. Sterile distilled water, DEMSO, and investigated compounds (4h (1.9 and 3.8 mg/kg) and 4j (1.9 and 3.8 mg/kg)) were injected in a volume of 4 ml/kg[61]. The experiment lasts two weeks, the 1st week for induction of infection in the infected groups and the 2nd week for the administration of the compounds in all groups. […]
ALT and AST were determined[66] using commercial kits obtained from Diamond Diagnostics, Egypt.
Serum urea was determined by using the modified Berthelot–Searcy method. Serum creatinine activity was also assessed by using the application of Jaffe’s reaction.
Serum levels of the pro-inflammatory cytokine, TNF-α, were determined by the quantitative enzyme immunoassay (EIA) kit purchased from R&D Systems (USA) according to the method of Howard and Harada[69], while that of anti-inflammatory cytokine IL-10 was according to Croft et al.. […]

[3] = H&E histological examination of liver and kidney, uninfected treated rats; format: in vivo; details: for liver histological structure (H&E): 1.9 and 3.8 mg/kg IP daily for one week; for kidney histological structure (H&E): low dose and high dose (1.9 and 3.8 mg/kg IP)
Protocol: (§2) Rats were divided randomly into equal fifteen groups, each containing 9 rats as follows: • Group 1: Rats were kept on standard laboratory chow and water ad libitum to serve as a control. • Group 2: Rats have injected IP with sterile distilled water (4ml/kg) daily for one week to serve as a control. • Group 3: Rats have injected IP with DEMSO (dimethyl sulfoxide) (4 ml/kg) daily for one week to serve as a control. • Group 4: Rats have injected IP with 4h (1.9 mg/kg) daily for one week. • Group 5: Rats have injected IP with 4h (3.8 mg/kg) daily for one week. • Group 6: Rats have injected IP with 4i (1.9 mg/kg) daily for one week. • Group 7: Rats have injected IP with 4i (3.8 mg/kg) daily for one week. • Group 8: Rats were infected by a single IM injection of S. aureus strain [1.0 ml) 1 × 10^7) colony-forming units]. • Group 9: Rats have injected IP with 4h (1.9 mg/kg) daily for one week on the 7th day after induction of infection by a single IM injection of S. aureus strain [1.0 ml (1 × 10^7) colony-forming units. • Group 10: Rats have injected IP with 4h (3.8 mg/kg) daily for one week on the 7th day after induction of infection by a single IM injection of S. aureus strain [1.0 ml (1 × 10^7) colony-forming units]. • Group 11: Rats were infected by a single IM injection of S. typhi strain [1.0 ml (1 × 10^7) colony forming units). • Group 12: Rats have injected IP with 4h (1.9 mg/kg) daily for one week. on the 7th day after induction of infection by a single IM injection of S. typhi strain [1.0 ml (1 × 10^7) colony-forming units]. • Group 13: Rats have injected IP with 4h (3.8 mg/kg) daily for one week on the 7th day after infection by a single IM injection of S. typhi strain [1.0 ml (1 × 10^7) colony-forming units]. • Group 14: Rats have injected IP with 4i (1.9 mg/kg) daily for one week. on the 7th day after induction of infection by a single IM injection of S. typhi strain [1.0 ml (1 × 10^7) colony-forming units]. • Group 15: Rats have injected IP with 4i (3.8 mg/kg) daily for one week. on the 7th day after induction of infection by a single IM injection of Salmonella strain [1.0 ml (1 × 10^7) colony-forming units].
(§3) At the end of the experiment, the animals were euthanized through cervical dislocation. After that, the liver and kidney were dissected for histological study. The procedure for histological preparations was described by Bancroft and Stevens[73]. Briefly, liver and kidney tissues were sliced to 3–4 mm thick, fixed in 10% neutral buffered formalin (10% NBF), dehydrated in graded concentrations of ethanol, cleared in xylene, and embedded in paraffin. The paraffin blocks were sectioned with a microtome at (4–6 μm) thickness and dyed with H & E stain to study the general tissue structure.

S. typhi [4] = experiment: H&E histological examination of liver and kidney, S. typhi infected rats; format: in vivo
Protocol: as §2, §3

A. baumanii ATCC 19606 = experiment: Minimal inhibitory concentration (MIC), broth dilution
Acientobacter sensitive = experiment: as above
Aciento MDR = experiment: as above
S. aureus ATCC 6538 = experiment: as above
E. coli ATCC 25922 = experiment: as above
[5] = first dose (1.9 mg/kg IP daily for one week)
[6] = second dose (3.8 mg/kg IP daily for one week)

| Compound | antimicrobial activity (SAR grading) [1] | renal and liver functions, oxidative stress and inflammatory markers (urea, creatinine, ALT, AST, GSH, MDA, TNF-α, IL-10) (S. typhi [2]; [5]) | renal and liver functions, oxidative stress and inflammatory markers (urea, creatinine, ALT, AST, GSH, MDA, TNF-α, IL-10) (S. typhi [2]; [6]) | liver histological structure (H&E) [3] | kidney histological structure (H&E) [3] | kidney pathological changes (H&E) (S. typhi [4]; high dose (3.8 mg/kg)) | liver pathological changes (H&E) (S. typhi [4]; high dose (3.8 mg/kg)) | kidney pathological changes (H&E) (S. typhi [4]; low dose (1.9 mg/kg)) | liver pathological changes (H&E) (S. typhi [4]; low dose (1.9 mg/kg)) | also measured |
| --- | --- | --- | --- | --- | --- | --- | --- | --- | --- | --- |
| COc1ccc(C(=O)NN=Cc2ccc3ccccc3n2)cc1OC [Compound 4i, N'-(quinolin-2-ylmethylene)-3,4-dimethoxybenzohydrazide] | weaker antimicrobial potential | normalisation of urea, ALT, and AST | returning of urea, creatinine, ALT, and AST | normal histological structure | histological structure similar to those of the control groups | marked improved renal tissue | marked improvement in the pathological changes | improved pathological changes | improved pathological changes | MIC (C. albicans MTCC183; Candida albicans, MTCC183): 23.3 µM (≈ 7.81 µg/mL); MIC ([1]; read-out: Average MIC): 99.7 µM (≈ 33.4 µg/mL); MBC (E. coli; Escherichia coli): 186 µM (≈ 62.5 µg/mL); MBC (S. aureus; Staphylococcus aureus): 186 µM (≈ 62.5 µg/mL); MIC (A. baumanii ATCC 19606; Acinetobacter baumannii, ATCC19606): 11.6 µM (≈ 3.9 µg/mL); MIC (Acientobacter sensitive; Acinetobacter baumannii): 46.5 µM (≈ 15.6 µg/mL); MIC (Aciento MDR; Acinetobacter baumannii): 373 µM (≈ 125 µg/mL); MIC (S. aureus ATCC 6538; Staphylococcus aureus, ATCC6538): 46.5 µM (≈ 15.6 µg/mL); MIC (E. coli ATCC 25922; Escherichia coli, ATCC25922): 23.3 µM (≈ 7.81 µg/mL) |
| N'-((3a,7a-dihydro-1H-indol-3-yl)methylene)-3,4-dimethoxybenzohydrazide [Compound 4h] | weaker antimicrobial potential | significant improvement in all measured parameters | returning of urea, creatinine, AST, and TNF-α to normal levels | normal histological structure | histological structure similar to those of the control groups | marked improved renal tissue | marked improvement in the pathological changes | improved pathological changes | improved pathological changes | MIC (C. albicans MTCC183; C. albicans (CA), read-out: MIC): 386.80 µM; Average MIC ([1]; average over nine microbial species): 112.13 µM; MBC (E. coli; E. coli): 96.87 µM; MBC (S. aureus; S. aureus): 96.87 µM; MIC (A. baumanii ATCC 19606; Acientobacter ATCC 19606 (A A)): 48.28 µM; MIC (Acientobacter sensitive; Acientobacter sensitive (AS)): 24.17 µM; MIC (Aciento MDR; Aciento MDR (AM)): 193.40 µM; MIC (S. aureus ATCC 6538; S. aureus (SA)): 5.88 µM; MIC (E. coli ATCC 25922; E. coli (EC)): 48.28 µM |
